27 molecules from patent publication EP0532097A1, “Piperazinyl(sulfon)amide derivatives of camphor as oxytocin antagonists” (MERCK & CO. INC., priority 1991, dated 1993) can be followed below.

The first test has as its target T1, uterine OT receptors (Rattus norvegicus, UniProt P70536).
T1 construct: using a crude membrane preparation of uteri; from tissue; host or cells: uterus of DES-treated rats, crude membrane preparation
T1 sequence (P70536 1-388): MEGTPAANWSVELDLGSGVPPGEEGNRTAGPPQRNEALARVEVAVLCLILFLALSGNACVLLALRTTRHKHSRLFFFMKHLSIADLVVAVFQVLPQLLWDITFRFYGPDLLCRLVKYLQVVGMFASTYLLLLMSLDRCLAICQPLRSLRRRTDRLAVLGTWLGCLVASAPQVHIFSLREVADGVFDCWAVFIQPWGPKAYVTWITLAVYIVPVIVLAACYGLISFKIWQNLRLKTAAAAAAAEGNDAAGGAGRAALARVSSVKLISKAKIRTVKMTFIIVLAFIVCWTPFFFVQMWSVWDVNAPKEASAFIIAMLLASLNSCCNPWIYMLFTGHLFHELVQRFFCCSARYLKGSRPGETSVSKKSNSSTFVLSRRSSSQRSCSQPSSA
The experiment in a line: [³H]Oxytocin radioligand binding assay, crude membrane preparation of uteri from DES-treated rats.
Settings: not given
By IC50 is commonly meant the concentration that gives 50% inhibition. `Cc1ccccc1N1CCN(S(=O)(=O)C[C@]23CC[C@H](C[C@@H]2NC(=O)[C@H](CCS(C)(=O)=O)NC(=O)Cc2c[nH]cn2)C3(C)C)CC1` [Example 37, 1-((7,7-Dimethyl-2-endo-(2s-(imidazol-4-ylacetyl-amino)-4-(methyl-sulfonyl)butyramido)-bicyclo(2.2.1)-heptan-1-yl)methanesulfonyl)-4-(2-methylphenyl)-piperazine] registered a 50% inhibitory concentration (IC50) of 1.2 nM.

Staying with this test, now noted: at 100 nM.
For the molecule “1-((7,7-Dimethyl-2-exo-hydroxy-2-endo-2-(1-(4-pyridinyl)methylamino)-propyl-bicyclo(2.2.1)heptan-1-yl)methanesulfonyl)-4-(2-methylphenyl)-piperazine [Example 27]”, the “inhibition at 100 nM” value is recorded as 37% inhibition at 100 nM.

The test is the same for the next values; noted with them: at 1,000 nM; 1 µM.
As for “1-((7,7-Dimethyl-2-(3-acetamido-3-carboxy)propylidine-bicyclo(2.2.1)-heptan-1-yl)methanesulfonyl)-4-(2-methylphenyl)piperazine [Example 29]”, the “inhibition at 1,000 nM” value is on record as 78% inhibition at 1,000 nM.

Still in this test, the particulars now being: competition with 1 nM [³H]OT, 60 minutes, 22°C; concentration that inhibits 50% of OT; read-out: IC50.
Turning to `COC(=O)[C@H]1C[C@H]2CC[C@]1(CS(=O)(=O)N1CCN(c3ccccc3C)CC1)C2(C)C` [Example 23, 1-((7,7-Dimethyl-2-endo-methoxycarbonyl-bicyclo-(2.2.1)heptan-1-yl)methanesulfonyl)-4-(2-methyl-phenyl)piperazine], the IC50 came to 120 nM. `Cc1ccccc1N1CCN(S(=O)(=O)C[C@]23CC[C@H](C[C@@H]2C(=O)O)C3(C)C)CC1` [Example 24, 1-((7,7-Dimethyl-2-endo-carboxy-bicyclo(2.2.1)heptan-1-yl)methane-sulfonyl)-4-(2-methylphenyl)piperazine]: the IC50 was 260 nM. Same read-out and setting: the result for `Cc1ccccc1N1CCN(S(=O)(=O)CC23CCC(CC2=NO)C3(C)C)CC1` (stereo not drawn) [Example 33, 1-((7,7-Dimethyl-2-oximino-bicyclo(2.2.1)heptan-1-yl)methanesulfonyl)-4-(2-methylphenyl)-piperazine] reads 460 nM; that for `Cc1ccccc1N1CCN(S(=O)(=O)C[C@]23CC[C@H](C[C@@H]2NC(=O)[C@@H](N)CCS(C)(=O)=O)C3(C)C)CC1` [Example 36, 1-((7,7-Dimethyl-2-endo-(2S-amino-4-(methylsulfonyl)-butyramido)-bicyclo(2.2.1)heptan-1-yl)methanesulfonyl)-4-(2-methylphenyl)piperazine], 7.7 nM. Still for that read-out and setting: then `Cc1ccccc1N1CCN(S(=O)(=O)C[C@]23CC[C@H](C[C@@H]2NC(=O)[C@H](CCS(C)(=O)=O)N(C)C)C3(C)C)CC1` [Example 38, 1-((7,7-Dimethyl-2-endo-(2s-(dimethylamino)-4-(methylsulfonyl)butyramido)-bicyclo(2.2.1)heptan-1-yl)methanesulfonyl)-4-(2-methyl-phenyl)piperazine], with 5.4 nM; and `Cc1ccccc1N1CCN(S(=O)(=O)C[C@]23CC[C@H](C[C@@H]2N(C)C(=O)[C@@H](N)CCS(C)(=O)=O)C3(C)C)CC1` [Example 41, 1-((7,7-dimethyl-2-endo-methyl(2S-amino-4-(methylsulfonyl)butanoyl)amino-bicyclo(2.2.1)heptan-1-yl)methanesulfonyl)-4-(2-methylphenyl)-piperazine], with 6.3 nM.

The same test, now with this note: read-out: inhibition at 100 nM.
In the case of `COC(=O)CCNCC(C)C1(O)CC2CCC1(CS(=O)(=O)N1CCN(c3ccccc3C)CC1)C2(C)C` (stereo not drawn) [Example 10, 1-((7,7-Dimethyl-2-exo-hydroxy-2-endo-2-(1-(2-methoxycarbonylethyl)-amino)propyl-bicyclo(2.2.1)heptan-1-yl)methanesulfonyl)-4-(2-methylphenyl)piperazine], the inhibition at 0.1 µM worked out at 48%.

Turning to `C=CC1(O)CC2CCC1(CS(=O)(=O)N1CCN(c3ccccc3C)CC1)C2(C)C` (stereo not drawn) [Example 12, 1-((7,7-dimethyl-2-exo-hydroxy-2-endo-ethenyl-bicyclo(2.2.1)heptan-1-yl)methanesulfonyl)-4-(2-methylphenyl)piperazine], the inhibition at 0.1 µM worked out at 23%.

Take `Cc1ccccc1N1CCN(S(=O)(=O)CC23CCC(CC2=CCNC(=O)Cc2cnc[nH]2)C3(C)C)CC1` (stereo not drawn) [Example 17, 1-((7,7-dimethyl-2-(2-(4(5)-imidazolylacetyl)amino)-ethylidine-bicyclo(2.2.1)heptan-1-yl)methane-sulfonyl)-4-(2-methylphenyl)piperazine]: the inhibition at 0.1 µM worked out at 36%. The same measure, in the same setting: then `Cc1ccccc1N1CCN(S(=O)(=O)C[C@]23CC[C@H](C[C@@H]2C(=O)NCCc2cnc[nH]2)C3(C)C)CC1` [Example 25, 1-((7,7-Dimethyl-2-endo-(4-imidazolyl)ethylamino-carbonyl-bicyclo-(2.2.1)heptan-1-yl)methanesulfonyl)-4-(2-methylphenyl)piperazine], with 34%; and `CCOC(=O)C(CC=C1CC2CCC1(CS(=O)(=O)N1CCN(c3ccccc3C)CC1)C2(C)C)(NC(C)=O)C(=O)OCC` (stereo not drawn) [Example 28, 1-((7,7-Dimethyl-2-(3-acetamido-3,3'-di(ethoxycarbonyl))propylidine-bicyclo(2.2.1)heptan-1-yl)methanesulfonyl)-4-(2-methylphenyl)piperazine], with 35%; and `Cc1ccccc1N1CCN(S(=O)(=O)C[C@]23CC[C@H](C[C@@H]2NC(=O)[C@H](CCS(C)(=O)=O)NC(=O)OC(C)(C)C)C3(C)C)CC1` [Example 35, 1-((7,7-Dimethyl-2-endo-(2S-(tert-butyloxycarbonyl-amino)-4-(methyl-sulfonyl)-butyramido)-bicyclo(2.2.1)-heptan-1-yl)methanesulfonyl)-4-(2-methylphenyl)-piperazine], with 91%.

The same test, now with this note: read-out: inhibition at 1,000 nM.
Turning to `Cc1ccccc1N1CCN(S(=O)(=O)CC23CCC(CC2=CCN=[N+]=[N-])C3(C)C)CC1` (stereo not drawn) [Example 15, 1-((7,7-dimethyl-2-(2-azido)ethylidine-bicyclo-(2.2.1)heptan-1-yl)methanesulfonyl)-4-(2-methyl-phenyl)piperazine], the inhibition at 1 µM came out at 44%. Same read-out and setting: the result for `Cc1ccccc1N1CCN(S(=O)(=O)CC23CCC(CC2=CCN)C3(C)C)CC1` (stereo not drawn) [Example 16, 1-((7,7-dimethyl-2-(2-amino)ethylidine-bicyclo-(2.2.1)heptan-1-yl)methanesulfonyl)-4-(2-methyl-phenyl)piperazine] reads 64%; that for `Cc1ccccc1N1CCN(S(=O)(=O)CC23CCC(CC24CO4)C3(C)C)CC1` (stereo not drawn) [Example 18, 1-((7,7-Dimethyl-2-spiro-epoxy-bicyclo(2.2.1)heptan-1-yl)methane-sulfonyl)-4-(2-methylphenyl)piperazine], 75%; that for `Cc1ccccc1N1CCN(S(=O)(=O)C[C@]23CC[C@H](C[C@]2(O)CNCC(C)C)C3(C)C)CC1` [Example 19, 1-((7,7-Dimethyl-2-exo-hydroxy-2-endo-isobutylamino-methyl-bicyclo(2.2.1)heptan-1-yl)methanesulfonyl)-4-(2-methylphenyl)piperazine], 31%. The same measure, in the same setting: then `COC(=O)C1=CC2CCC1(CS(=O)(=O)N1CCN(c3ccccc3C)CC1)C2(C)C` (stereo not drawn) [Example 20, 1-((7,7-Dimethyl-2-methoxycarbonyl-bicyclo(2.2.1)hept-2-en-1-yl)methanesulfonyl)-4-(2-methylphenyl)-piperazine], with 72%. As to `Cc1ccccc1N1CCN(S(=O)(=O)CC23CCC(C=C2C(=O)O)C3(C)C)CC1` (stereo not drawn) [Example 21, 1-((7,7-Dimethyl-2-carboxy-bicyclo(2.2.1)hept-2-en-1-yl)methanesulfonyl)-4-(2-methylphenyl)piperazine], the inhibition at 1 µM worked out at 38%. With `Cc1ccccc1N1CCN(S(=O)(=O)CC23CCC(C=C2C(=O)NCCc2cnc[nH]2)C3(C)C)CC1` (stereo not drawn) [Example 22, 1-((7,7-Dimethyl-2-(4-imidazolyl)ethylaminocarbonyl-bicyclo(2.2.1)hept-2-en-1-yl)methanesulfonyl)-4-(2-methylphenyl)piperazine], the inhibition at 1 µM was 78%. Still for that read-out and setting: then `Cc1ccccc1N1CCN(S(=O)(=O)C[C@]23CC[C@H](C[C@H]2O)C3(C)C)C(C)C1` (stereo partly drawn) [Example 32, 1-((7,7-Dimethyl-2-exo-hydroxy-bicyclo(2.2.1)heptan-1-yl)methane-sulfonyl)-4-(2-methylphenyl)-2-methyl-piperazine], with 37%; and `Cc1ccccc1N1CCN(S(=O)(=O)C[C@]23CC[C@H](C[C@@H]2NC(=O)OCc2ccccc2)C3(C)C)CC1` [Example 39, 1-((7,7-Dimethyl-2-endo-benzyloxycarbonylamino-bicyclo(2.2.1)heptan-1-yl)methanesulfonyl)-4-(2-methyl-phenyl)piperazine], with 54%; and `Cc1ccccc1N1CCN(S(=O)(=O)C[C@]23CC[C@H](C[C@@H]2N(C)C(=O)OCc2ccccc2)C3(C)C)CC1` [Example 40, 1-((7,7-Dimethyl-2-endo-methyl(benzyloxy-carbonyl)amino-bicyclo(2.2.1)-heptan-1-yl)methanesulfonyl)4-(2-methylphenyl)piperazine], with 35%.

The same test, now with this note: read-out: inhibition at 10,000 nM.
As for `Cc1ccccc1N1CCN(S(=O)(=O)CC23CCC(CC2=O)C3(C)C)CC1=O` (stereo not drawn) [Example 30, 1-((7,7-Dimethyl-2-oxo-bicyclo(2.2.1)heptan-1-yl)methanesulfonyl)-4-(2-methylphenyl)-3-piperazinone], the inhibition at 10 µM came to 16%. The same measure, in the same setting: the result for `Cc1ccccc1N1CCN(S(=O)(=O)CC23CCC(CC2=O)C3(C)C)C(C)C1=O` (stereo not drawn) [Example 31, 1-((7,7-Dimethyl-2-oxo-bicyclo(2.2.1)heptan-1-yl)methanesulfonyl)-4-(2-methylphenyl)-2-methyl-3-piperazinone] reads 5%.
